{"source": "paper PMC11001641", "about": "“Iron–sulfur cluster assembly scaffold protein IscU is required for activation of ferric uptake regulator (Fur) in Escherichiacoli” (The Journal of Biological Chemistry, 2024)", "key": {"E. coli ferredoxin (Fdx)": {"molecular_target": "T1, E. coli ferredoxin (Fdx) (Escherichia coli, UniProt P0A9R4)", "T1 construct": "his-tagged, expressed from pBAD in E. coli MC4100; isc operon ferredoxin", "T1 sequence (P0A9R4 2-111)": "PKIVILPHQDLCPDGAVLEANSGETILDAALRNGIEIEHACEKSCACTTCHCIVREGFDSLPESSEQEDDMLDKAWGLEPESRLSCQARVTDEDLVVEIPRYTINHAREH", "experiment": "UV-Vis absorption of purified protein", "assay_type": "binding", "conditions": "pH 8.0; 500 mM NaCl; protein from wild-type E. coli grown in M9 with 2 uM iron; bound during expression"}, "E. coli FhuF": {"molecular_target": "T2, E. coli FhuF (Escherichia coli, UniProt P39405)", "T2 construct": "his-tagged, expressed from pBAD in E. coli MC4100", "T2 sequence (P39405 whole entry)": "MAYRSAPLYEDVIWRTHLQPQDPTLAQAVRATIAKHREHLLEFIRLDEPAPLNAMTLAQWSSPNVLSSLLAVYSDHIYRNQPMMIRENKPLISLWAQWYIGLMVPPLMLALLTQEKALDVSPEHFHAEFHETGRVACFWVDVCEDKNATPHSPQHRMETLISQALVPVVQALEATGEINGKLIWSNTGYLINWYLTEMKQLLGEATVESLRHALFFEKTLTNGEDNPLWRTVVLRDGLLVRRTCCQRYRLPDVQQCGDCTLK", "experiment": "UV-Vis absorption of purified protein", "assay_type": "binding", "conditions": "pH 8.0; 500 mM NaCl; protein from wild-type E. coli grown in M9 with 2 uM iron; bound during expression"}}, "data": [{"smiles": "[S]1[Fe][S][Fe]1", "note": "[[2Fe-2S] cluster]", "values": [{"measurement": "UV-Vis absorption of purified protein", "setting": "E. coli ferredoxin (Fdx)", "value": "the E. coli ferredoxin, a [2Fe-2S] cluster-containing protein"}, {"measurement": "UV-Vis absorption of purified protein", "setting": "E. coli FhuF", "value": "[2Fe-2S] cluster assembly in the E. coli siderophore-reductase FhuF"}]}]}
